Measured values from patent US11505548B2, “Heterocyclic compounds and their use for treatment of helminthic infections and diseases” (Celgene Corporation, priority 2019, dated 2022).
Read-outs that look alike come from different tables or passages of the source.

Tested on: Onchocerca gutturosa Adult Male Worms
Assay: Onchocerciasis in vitro screening model, worm motility score
Type: cell-based
Conditions: read-out: O. gutturosa activity level (IC50 or MED)
[1] = Onchocerca gutturosa, Table 1 O. gutturosa, levels A/B/C, motility or MTT readout not specified
[2] = in vitro, Onchocerca gutturosa adult male worms, class A/B/C

Structure (SMILES)	IC50 [1] [nM]	IC50 [2] [nM]
COc1ccc(-c2nsc(Nc3ccc(C(F)(F)F)cn3)n2)nc1 [Compound 209, 3-(5-methoxy-pyridin-2-yl)-N-(5-(trifluoromethyl)pyridin-2-yl)-1,2,4-thiadiazol-5-amine]		< 200
COc1ccnc(-c2nsc(Nc3ccc(C(F)(F)F)cn3)n2)c1 [Compound 176, 3-(4-methoxy-pyridin-2-yl)-N-(5-(trifluoromethyl)pyridin-2-yl)-1,2,4-thiadiazol-5-amine]	< 200	
CC(C)Oc1ccc(-c2nsc(Nc3ncccc3C(=O)N(C)C3CC3)n2)nc1 [Compound 262, N-cyclo-propyl-2-(3-(5-isopropoxy-pyridin-2-yl)-1,2,4-thiadiazol-5-ylamino)-N-methyl-nicotinamide]		500 to 5000
CC(=O)N(C)c1cc(C(F)(F)F)cnc1Nc1nc(-c2cc3c(cn2)N(C(C)C)CC3)ns1 [Compound 273, N-(2-(3-(1-isopropyl-2,3-dihydro-1H-pyrrolo[2,3-c]pyridin-5-yl)-1,2,4-thiadiazol-5-ylamino)-5-(trifluoromethyl)pyridin-3-yl)-N-methylacetamide]		200 to 500
O=C(NC1CC(F)(F)C1)c1ccc(Nc2nc(-c3ccc(OC4CC4)cn3)ns2)nc1 [Compound 107, 6-(3-(5-cyclo-propoxypyridin-2-yl)-1,2,4-thiadiazol-5-ylamino)-N-(3,3-difluoro-cyclobutyl) nicotinamide]	500 to 5000	
FC(F)(F)c1cncc(Nc2nc(-c3ccccn3)ns2)c1 [Cmpd 3, 3-(pyridin-2-yl)-N-(5-(trifluoromethyl)pyridin-3-yl)-1,2,4-thiadiazol-5-amine]	500 to 5000	
Cc1cccnc1Nc1nc(-c2cc(OC3CC3)ccn2)ns1 [Compound 65, 3-(4-cycloprop-oxypyridin-2-yl)-N-(3-methyl-pyridin-2-yl)-1,2,4-thiadiazol-5-amine]	500 to 5000	
CC(C)Oc1cnc(-c2nsc(Nc3ncccc3N3CCCC3=O)n2)cc1C(F)(F)F [Compound 179, 1-(2-(3-(5-isopropoxy-4-(trifluoromethyl)pyridin-2-yl)-1,2,4-thiadiazol-5-ylamino)pyridin-3-yl)pyrrolidin-2-one]	500 to 5000	
Cc1cc(C#N)cnc1Nc1nc(-c2ccc(OC(C)C)cn2)ns1 [Compound 231, 6-(3-(5-isoprop-oxypyridin-2-yl)-1,2,4-thiadiazol-5-ylamino)-5-methyl-nicotinonitrile]		200 to 500
COC(=O)c1cccnc1Nc1nc(-c2ccc(OC(C)C)cn2)ns1 [Compound 276, methyl 2-(3-(5-isopropoxy-pyridin-2-yl)-1,2,4-thiadiazol-5-ylamino) nicotinate]		500 to 5000
COc1cccnc1Nc1nc(-c2ccc(OC3CC3)cn2)ns1 [Compound 80, 3-(5-cycloprop-oxypyridin-2-yl)-N-(3-methoxypyridin-2-yl)-1,2,4-thiadiazol-5-amine]	200 to 500	
COc1cccnc1Nc1nc(-c2cc(C(F)(F)F)c(OC(C)C)cn2)ns1 [Compound 167, 3-(5-isopropoxy-4-(trifluoromethyl)pyridin-2-yl)-N-(3-methoxypyridin-2-yl)-1,2,4-thiadiazol-5-amine]	200 to 500	
CC(C)Oc1ccc(-c2nsc(Nc3ncccc3C3CC3)n2)nc1 [Compound 76, N-(3-cyclopropyl-pyridin-2-yl)-3-(5-isopropoxy-pyridin-2-yl)-1,2,4-thiadiazol-5-amine]	< 200	
Cc1cccnc1Nc1nc(-c2ccc(OC3CCN(C4CC4)CC3)cn2)ns1 [Compound 45, 3-(5-(1-cyclo-propylpiperidin-4-yloxy)pyridin-2-yl)-N-(3-methylpyridin-2-yl)-1,2,4-thiadiazol-5-amine]	< 200	
c1ccc(-c2nsc(Nc3ccc(OC4CCOCC4)cn3)n2)nc1 [Cmpd 9, 3-(pyridin-2-yl)-N-(5-(tetrahydro-2H-pyran-4-yloxy)pyridin-2-yl)-1,2,4-thiadiazol-5-amine]	500 to 5000	
Cc1ccnc(-c2noc(Nc3ncccc3F)n2)c1 [Compound 14, N-(3-fluoro-pyridin-2-yl)-3-(4-methylpyridin-2-yl)-1,2,4-oxadiazol-5-amine]	500 to 5000	
CNc1cccnc1Nc1nc(-c2cc(C)ccn2)ns1 [Compound 23, N3-methyl-N2-(3-(4-methylpyridin-2-yl)-1,2,4-thiadiazol-5-yl) pyridine-2,3-diamine]	< 200	

The remaining lines, values ahead:

IC50 [1] [nM]	IC50 [2] [nM]	Structure (SMILES)
< 200		CN(C)c1cccnc1Nc1nc(-c2ccc(OC3CCN(C4CC4)CC3(F)F)cn2)ns1 (stereo not drawn) [Compound 123, N2-(3-(5-(1-cyclopropyl-3,3-difluoro-piperidin-4-yloxy)pyridin-2-yl)-1,2,4-thiadiazol-5-yl)-N3,N3-dimethyl-pyridine-2,3-diamine]
500 to 5000		CC(C)Oc1ccc(-c2nnc(Nc3ccc(C(C)C)cn3)s2)nc1 [Compound 181, 5-(5-isopropoxy-pyridin-2-yl)-N-(5-isopropyl-pyridin-2-yl)-1,3,4-thiadiazol-2-amine]
	< 200	CC(=O)N(C)c1cc(C(F)(F)F)cnc1Nc1nc(-c2cc(OC3CCOCC3)ccn2)ns1 [Compound 306, N-methyl-N-(2-(3-(4-(tetrahydro-2H-pyran-4-yloxy)pyridin-2-yl)-1,2,4-thiadiazol-5-ylamino)-5-(trifluoromethyl)pyridin-3-yl)acetamide]
< 200		CC(C)Oc1ccc(-c2nnc(Nc3ncccc3N(C)C)o2)nc1 [Compound 132, N2-(5-(5-isopropoxy-pyridin-2-yl)-1,3,4-oxadiazol-2-yl)-N3,N3-dimethyl-pyridine-2,3-diamine]
500 to 5000		CC(C)Oc1ccc(-c2nsc(Nc3ncccc3C(N)=O)n2)nc1 [Compound 164, 2-(3-(5-isoprop-oxypyridin-2-yl)-1,2,4-thiadiazol-5-ylamino) nicotinamide]
	< 200	Cc1cccnc1Nc1nnc(-c2ccc(OC3CCOCC3)cn2)[nH]1 [Compound 258, 3-methyl-N-(5-(5-(tetrahydro-2H-pyran-4-yloxy)pyridin-2-yl)-4H-1,2,4-triazol-3-yl) pyridin-2-amine]
200 to 500		Cc1cccnc1N(C)c1nc(-c2ccc(OC(C)C)cn2)ns1 [Compound 98, 3-(5-isopropoxy-pyridin-2-yl)-N-methyl-N-(3-methylpyridin-2-yl)-1,2,4-thiadiazol-5-amine]
200 to 500		CC(C)Oc1ccc(-c2nnc(Nc3cc(C(F)(F)F)c(C(C)C)cn3)o2)nc1 [Compound 154, 5-(5-isoprop-oxypyridin-2-yl)-N-(5-isopropyl-4-(trifluoro-methyl)pyridin-2-yl)-1,3,4-oxadiazol-2-amine]
500 to 5000		CN(C)c1cccnc1Nc1nc(-c2ccc(S(=O)(=O)C3CCN(C4CC4)CC3)cn2)ns1 [Compound 145, N2-(3-(5-(1-cyclopropyl-piperidin-4-ylsulfonyl)pyridin-2-yl)-1,2,4-thiadiazol-5-yl)-N3,N3-dimethyl-pyridine-2,3-diamine]
	< 200	CC(=O)N(C)c1cc(C(F)(F)F)cnc1Nc1nc(-c2cc(OC(C)C)ccn2)ns1 [Compound 317, N-(2-(3-(4-isopropoxypyridin-2-yl)-1,2,4-thiadiazol-5-ylamino)-5-(trifluoromethyl)pyridin-3-yl)-N-methylacetamide]
< 200		Cc1cccnc1Nc1nnc(-c2cc(C(C)C)ccn2)o1 [Compound 104, 5-(4-isopropyl-pyridin-2-yl)-N-(3-methyl-pyridin-2-yl)-1,3,4-oxadiazol-2-amine]
500 to 5000		c1ccc(-c2nsc(Nc3ccc(OC4CCNCC4)cn3)n2)nc1 [Cmpd 10, N-(5-(piperidin-4-yloxy)pyridin-2-yl)-3-(pyridin-2-yl)-1,2,4-thiadiazol-5-amine]
< 200		Cc1ccnc(-c2nsc(Nc3ncccc3C(F)(F)F)n2)c1 [Compound 37, 3-(4-methyl-pyridin-2-yl)-N-(3-(trifluoro-methyl)pyridin-2-yl)-1,2,4-thiadiazol-5-amine]
200 to 500		Cc1cccnc1Nc1nc(-c2ccc(C(=O)N3CCCC3)cn2)ns1 [Compound 61, (6-(5-(3-methyl-pyridin-2-ylamino)-1,2,4-thiadiazol-3-yl)pyridin-3-yl) (pyrrolidin-1-yl)methanone]
	500 to 5000	COc1ccc(-c2nnc(Nc3cc(OC(C)C)ccn3)s2)nc1 [Compound 243, N-(4-isoprop-oxypyridin-2-yl)-5-(5-methoxy-pyridin-2-yl)-1,3,4-thiadiazol-2-amine]
200 to 500		COc1ccc(-c2nsc(Nc3cc(OC4CCOCC4)ccn3)n2)nc1 [Compound 46, 3-(5-methoxy-pyridin-2-yl)-N-(4-(tetrahydro-2H-pyran-4-yloxy)pyridin-2-yl)-1,2,4-thiadiazol-5-amine]
200 to 500		CC(=O)N1CCN(c2ccc(Nc3nc(-c4ccc(OC5CC5)cn4)ns3)nc2)CC1 [Compound 112, 1-(4-(6-(3-(5-cyclopropoxy-pyridin-2-yl)-1,2,4-thiadiazol-5-ylamino)pyridin-3-yl)piperazin-1-yl) ethanone]
500 to 5000		COc1ccc(-c2nsc(Nc3ccc(C4CCN(C)CC4)cn3)n2)nc1 [Compound 50, 3-(5-methoxy-pyridin-2-yl)-N-(5-(1-methyl-piperidin-4-yl)pyridin-2-yl)-1,2,4-thiadiazol-5-amine]
	500 to 5000	CC(=O)N(C)c1cccnc1Nc1nc(-c2cc(C#N)c(OC(C)C)cn2)ns1 [Compound 226, N-(2-(3-(4-cyano-5-isopropoxy-pyridin-2-yl)-1,2,4-thiadiazol-5-ylamino)pyridin-3-yl)-N-methyl-acetamide]
	< 200	Cc1cc(C(F)(F)F)cnc1Nc1nc(-c2cc3c(cn2)N(C)CC3)ns1 [Compound 324, 3-(1-methyl-2,3-dihydro-1H-pyrrolo[2,3-c]pyridin-5-yl)-N-(3-methyl-5-(trifluoromethyl)pyridin-2-yl)-1,2,4-thiadiazol-5-amine]
500 to 5000		CC(C)c1cccnc1Nc1nc(-c2ccc(F)cn2)ns1 [Compound 128, 3-(5-fluoro-pyridin-2-yl)-N-(3-isopropyl-pyridin-2-yl)-1,2,4-thiadiazol-5-amine]
500 to 5000		CC(C)Oc1ccnc(-c2nc(Nc3cc(C(F)(F)F)c(C(C)C)cn3)nn2C)c1 [Compound 146, N-(5-(4-isoprop-oxypyridin-2-yl)-1-methyl-1H-1,2,4-triazol-3-yl)-5-isopropyl-4-(trifluoro-methyl) pyridin-2-amine]
